This note sets out measurements from US6822100B2 (Bristol-Myers Squibb Company, priority 2001, dated 2004).

Read-outs that look alike come from different tables or passages of the source.

Experiment [1] deals with T1, human serotonin transporters (Homo sapiens, UniProt P31645).
T1 construct: expressed in transfected cells; host or cells: HEK-293 (HEK-hSERT), membrane homogenates
Briefly: Serotonin Transporter Binding Assay. Particulars: HEK-hSERT cell membranes, 1 nM [3H]-citalopram, Cheng and Prusoff. In a few lines: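 Membranes from HEK-293 cells stably expressing hSERT were incubated 1 hr at 25° C with 1 nM [^3H]-citalopram and test compound in 50 mM Tris pH 7.4, 120 mM NaCl, 5 mM KCl, then filtered. Non-specific binding was defined by 10 μM fluoxetine. IC50 came from displacement curves, and Ki by Cheng–Prusoff.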

The target in experiment [2] is T2, recombinant human dopamine D2L receptors (Homo sapiens, UniProt P14416).
T2 construct: expressed in transfected cells; host or cells: HEK-293 (HEK-D2L), membrane homogenates
Briefly: Dopamine Binding Assay. Particulars: HEK-D2L cell membranes, 150 pM [3H]-spiperone, Cheng and Prusoff. In a few lines: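 Competition binding on HEK-293 membranes stably expressing human D2L (~5 μg protein) with 150 pM [3H]-spiperone, 1.5 h at 22 °C in 50 mM Tris pH 7.4, 1 mM EDTA, 6 mM MgCl2. Filtration read-out; non-specific binding defined with 2 μM (+)butaclamol, Ki by Cheng-Prusoff.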

T1 sequence (P31645 whole entry): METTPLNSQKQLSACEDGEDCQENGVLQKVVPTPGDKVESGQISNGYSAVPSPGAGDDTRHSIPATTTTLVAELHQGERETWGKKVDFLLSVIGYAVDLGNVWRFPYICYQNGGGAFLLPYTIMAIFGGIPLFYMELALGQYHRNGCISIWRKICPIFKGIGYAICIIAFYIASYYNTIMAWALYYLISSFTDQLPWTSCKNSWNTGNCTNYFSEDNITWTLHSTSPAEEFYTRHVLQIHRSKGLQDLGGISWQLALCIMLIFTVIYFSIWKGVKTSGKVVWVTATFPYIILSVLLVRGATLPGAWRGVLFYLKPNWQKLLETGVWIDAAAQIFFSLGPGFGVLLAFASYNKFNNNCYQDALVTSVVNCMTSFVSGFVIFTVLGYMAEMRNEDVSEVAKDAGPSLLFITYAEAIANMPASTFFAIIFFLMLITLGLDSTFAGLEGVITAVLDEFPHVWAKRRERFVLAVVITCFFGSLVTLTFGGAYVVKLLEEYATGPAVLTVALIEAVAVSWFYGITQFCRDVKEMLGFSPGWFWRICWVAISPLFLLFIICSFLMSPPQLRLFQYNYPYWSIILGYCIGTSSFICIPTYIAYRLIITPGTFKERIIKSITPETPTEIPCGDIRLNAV
T2 sequence (P14416 whole entry): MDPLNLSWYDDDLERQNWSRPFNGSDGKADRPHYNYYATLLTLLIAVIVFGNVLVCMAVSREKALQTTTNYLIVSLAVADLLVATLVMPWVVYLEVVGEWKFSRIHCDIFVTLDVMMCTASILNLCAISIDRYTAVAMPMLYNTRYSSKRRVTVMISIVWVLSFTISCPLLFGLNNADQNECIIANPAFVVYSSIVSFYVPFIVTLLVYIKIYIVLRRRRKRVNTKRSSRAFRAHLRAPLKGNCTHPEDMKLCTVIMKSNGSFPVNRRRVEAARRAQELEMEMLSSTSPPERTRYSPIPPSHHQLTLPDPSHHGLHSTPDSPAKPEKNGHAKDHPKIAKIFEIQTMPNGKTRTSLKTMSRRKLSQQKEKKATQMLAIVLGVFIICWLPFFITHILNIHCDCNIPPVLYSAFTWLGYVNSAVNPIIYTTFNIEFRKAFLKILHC

Take `CCOC(=O)NCCN(CC)C[C@@H]1C[C@H]1c1c[nH]c2ccc(F)cc12` (relative stereo) [Example 109]: the Ki is 1 to 10 nM in experiment [1] (read-out: SERT Ki) and 100 to 1000 nM in experiment [2].
As to `Fc1ccc2[nH]cc(C3CC3CNCCCn3ccnc3)c2c1` (stereo not drawn) [Example 65, trans-2-[5-Fluoroindol-3-yl]-1-[N-3-(1-imidazolyl)propylaminomethyl]-cyclopropane], the Ki in experiment [1] (read-out: SERT Ki) and in experiment [2] was 10 to 100 nM throughout.
Consider `N#Cc1ccc2[nH]cc(C3CC3CNCCc3cccs3)c2c1` (stereo not drawn) [Example 26, trans-2-[5-Cyanoindol-3-yl]-1-[N-2-(2-thiopheneyl)ethylaminomethyl]-cyclopropane], for which the inhibition constant (Ki) in experiment [1] (read-out: SERT Ki) fell in the range of 1 to 10 nM; in experiment [2], 10 to 100 nM.
On to `CCN(CC)CC1CC1c1c[nH]c2ccc(F)cc12` (stereo not shown) [Example 183], for which the inhibition constant (Ki) in experiment [1] (SERT Ki (nM)) is 10 to 100 nM; in experiment [2], greater than 1000 nM.
On to `CN(C)CC1CC1c1c[nH]c2ccccc12` (stereo not shown) [Example 143], for which the inhibitory constant (Ki) in experiment [1] (SERT Ki (nM)) was 10 to 100 nM; in experiment [2], greater than 1000 nM.
As to `CN(Cc1ccccc1)CC1CC1c1c[nH]c2ccc(F)cc12` (stereo not drawn) [Example 186, cis-1-(N-benzyl-N-methylaminomethyl)-2-[5-fluoroindol-3-yl]-cyclopropane], the Ki in experiment [1] (read-out: SERT Ki) is 1 to 10 nM; in experiment [2], greater than 1000 nM.
For `N#Cc1ccc2[nH]cc(C3CC3CNCc3ccncc3)c2c1` (stereo not drawn) [Example 16, trans-2-[5-Cyanoindol-3-yl]-1-[N-(4-pyridyl)methylaminomethyl]-cyclopropane], the inhibition constant Ki fell in the range of 10 to 100 nM in experiment [1] (read-out: SERT Ki) and 100 to 1000 nM in experiment [2].
Consider `CCCOC(=O)NCCN(CC)C[C@@H]1C[C@H]1c1c[nH]c2ccc(F)cc12` (relative stereo) [Example 110, trans-1-[N,N-Ethyl-2-amino(propylcarbamoyl)ethylaminomethyl]-2-[5-fluoroindol-3-yl]-cyclopropane], for which the Ki in experiment [1] (read-out: SERT Ki) lay within 1 to 10 nM; in experiment [2], 100 to 1000 nM.
As for `N#Cc1ccc2[nH]cc([C@@H]3C[C@H]3CNCc3ccccc3)c2c1` (relative stereo) [Example 7, trans-1-(N-Benzlyaminomethyl)-2-[5-cyanoindol-3-yl]-cyclopropane], the values for the Ki in experiment [1] (read-out: SERT Ki) and in experiment [2] were 1 to 10 nM and 100 to 1000 nM, respectively.
As to `CN(C)CC1CC1c1c[nH]c2ccc(F)cc12` (single isomer, unassigned) [Example 130b, Cis-2-[5-Fluoroindol-3-yl]-1-(N,N-dimethylaminomethyl)cyclopropane], the results for the inhibitory constant (Ki) in experiment [1] (SERT Ki (nM)) and in experiment [2] were 1 to 10 nM and greater than 1000 nM, respectively.
Take `CC(C1CC1c1c[nH]c2ccc(C#N)cc12)N1CCCC1` (stereo not drawn) [Example 124, trans-3-[2-(1-Pyrrolidin-1-yl-ethyl)-cyclopropyl]-1H-indole-5-carbonitrile]: the figures for the Ki in experiment [1] (SERT Ki (nM)) and in experiment [2] were 1 to 10 nM and greater than 1000 nM, respectively.
Consider `CCOC(=O)NCCCN(C)C[C@@H]1C[C@H]1c1c[nH]c2ccc(F)cc12` (relative stereo) [Example 105, trans-2-[5-Fluoroindol-3-yl]-1-[N,N-methyl-2-amino(ethylcarbamoyl)propylaminomethyl]-cyclopropane], for which the Ki in experiment [1] (read-out: SERT Ki) was 10 to 100 nM; in experiment [2], 100 to 1000 nM.
Consider `COC(=O)NCCCN(C)C[C@@H]1C[C@H]1c1c[nH]c2ccc(F)cc12` (relative stereo) [Example 104, trans-2-[5-Fluoroindol-3-yl]-1-[N,N-methyl-2-amino(methylcarbamoyl)propylaminomethyl]-cyclopropane], for which the results for the inhibition constant Ki in experiment [1] (read-out: SERT Ki) and in experiment [2] were 10 to 100 nM and 100 to 1000 nM, respectively.
The matching figures for `Fc1ccc2[nH]cc(C3CC3CNCc3cccnc3)c2c1` (stereo not drawn) [Example 57, trans-2-[5-Fluoroindol-3-yl]-1-[N-(3-pyridylmethyl)aminomethyl]-cyclopropane]: 10 to 100 nM and 10 to 100 nM.
In the case of `CCN(C)CC1CC1c1c[nH]c2ccc(F)cc12` (stereo not shown) [Example 133], the Ki was 10 to 100 nM in experiment [1] (read-out: SERT Ki) and 100 to 1000 nM in experiment [2].
The matching figures for `N#Cc1ccc2[nH]cc(C3CC3CN3CCN(Cc4ccccc4)CC3)c2c1` (stereo not drawn) [Example 36, trans-1-[4-Benzyl-piperazin-1-yl-methyl]-2-[5-cyanoindol-3-yl]-cyclopropane]: 10 to 100 nM and 10 to 100 nM.
The matching figures for `COc1ccc(CNC[C@@H]2C[C@H]2c2c[nH]c3ccc(C#N)cc23)cc1` (relative stereo) [Example 10, trans-2-[5-Cyanoindol-3-yl]-1-[N-(4-methoxybenzyl)amnomethyl]-cyclopropane]: 1 to 10 nM and 100 to 1000 nM.
As to `CCN(CCCNC(=O)OC)C[C@@H]1C[C@H]1c1c[nH]c2ccc(C#N)cc12` (relative stereo) [Example 97, trans-2-[5-Cyanoindol-3-yl]-1-[N,N-ethyl-2-amino(methylcarbamoyl)propylaminomethyl]-cyclopropane], the Ki in experiment [1] (read-out: SERT Ki) was 1 to 10 nM; in experiment [2] it was 100 to 1000 nM.
As for `Fc1cccc(CCNCC2CC2c2c[nH]c3ccc(F)cc23)c1` (stereo not drawn) [Example 60, trans-2-[5-Fluoroindol-3-yl]-1-[N-(3-fluorophenyl)ethylaminomethyl]-cyclopropane], the Ki lay within 10 to 100 nM in experiment [1] (read-out: SERT Ki) and 100 to 1000 nM in experiment [2].
`CCN(CCNC(=O)OC)C[C@@H]1C[C@H]1c1c[nH]c2ccc(F)cc12` (relative stereo) [Example 108, trans-1-[N,N-Ethyl-2-amino(methylcarbamoyl)ethylaminomethyl]-2-[5-fluoroindol-3-yl]-cyclopropane]: the results for the Ki in experiment [1] (read-out: SERT Ki) and in experiment [2] were 10 to 100 nM and 100 to 1000 nM, respectively.
Regarding `Fc1ccc(CCNCC2CC2c2c[nH]c3ccc(F)cc23)cc1` (stereo not drawn) [Example 61, trans-2-[5-Fluoroindol-3-yl]-1-[N-(4-fluorophenyl)ethylaminomethyl]-cyclopropane], the Ki in experiment [1] (read-out: SERT Ki) and in experiment [2] was 10 to 100 nM in each case.
Regarding `Fc1ccc2[nH]cc(C3CC3CNCCCc3cccnc3)c2c1` (stereo not drawn) [Example 63, trans-2-[5-Fluoroindol-3-yl]-1-[N-3-(3-pyridyl)propylaminomethyl]-cyclopropane], the Ki in experiment [1] (read-out: SERT Ki) and in experiment [2] was 10 to 100 nM in each case.
In the case of `N#Cc1ccc2[nH]cc(C3CC3CNCc3ccc(F)cc3)c2c1` (stereo not drawn) [Example 13, trans-2-[5-Cyanoindol-3-yl]-1-[N-(4-fluorobenzyl)aminomethyl]-cyclopropane], the results for the Ki in experiment [1] (read-out: SERT Ki) and in experiment [2] were 1 to 10 nM and 100 to 1000 nM, respectively.
Consider `CCN(CC)C[C@@H]1C[C@H]1c1c[nH]c2ccc(F)cc12` (relative stereo) [Example 86], for which the figures for the Ki in experiment [1] (read-out: SERT Ki) and in experiment [2] were 10 to 100 nM and 100 to 1000 nM, respectively.
Regarding `CC(C)OC(=O)NCCCN(C)C[C@@H]1C[C@H]1c1c[nH]c2ccc(F)cc12` (relative stereo) [Example 107, trans-2-[5-Fluoroindol-3-yl]-1-[N,N-methyl-2-amino(isopropylcarbamoyl)propylaminomethyl]-cyclopropane], the Ki in experiment [1] (read-out: SERT Ki) was in the range of 10 to 100 nM; in experiment [2], 100 to 1000 nM.
With `CN(Cc1ccccc1)C[C@H]1C[C@@H]1c1c[nH]c2cc(C#N)ccc12` (racemic) [Example 162, 3-{2-[(Benzyl-methyl-amino)-methyl]-cyclopropyl}-1H-indole-6-carbonitrile], the Ki lay within 10 to 100 nM in experiment [1] (read-out: SERT Ki) and 100 to 1000 nM in experiment [2].
With `N#Cc1ccc2[nH]cc(C3CC3CNCc3cccc(F)c3)c2c1` (stereo not drawn) [Example 12, trans-2-[5-Cyanoindol-3-yl]-1-[N-(3-fluorobenzyl)aminomethyl]-cyclopropane], the Ki in experiment [1] (read-out: SERT Ki) lay in the range of 1 to 10 nM; in experiment [2], 100 to 1000 nM.
As for `N#Cc1ccc2[nH]cc(C3CC3CNCCCc3ccccc3)c2c1` (stereo not drawn) [Example 21, trans-2-[5-Cyanoindol-3-yl]-1-[N-3-phenylpropylaminomethyl]-cyclopropane], the Ki in experiment [1] (read-out: SERT Ki) lay within 1 to 10 nM; in experiment [2] it was 10 to 100 nM.
For the molecule `Fc1ccc2[nH]cc(C3CC3CN3CCC(Cc4ccccc4)CC3)c2c1` (stereo not drawn) [Example 73, trans-1-(4-Benzyl-piperidin-1-yl-methyl)-2-[5-fluoroindol-3-yl]-cyclopropane], the inhibition constant (Ki) in experiment [1] (read-out: SERT Ki) lay in the range of 1 to 10 nM; in experiment [2], 10 to 100 nM.
For the molecule `CCCNC[C@@H]1C[C@H]1c1c[nH]c2ccc(C#N)cc12` (relative stereo) [Example 45], the Ki in experiment [1] (read-out: SERT Ki) fell in the range of 10 to 100 nM; in experiment [2], 100 to 1000 nM.
In the case of `N#Cc1ccc2[nH]cc([C@@H]3C[C@H]3CNCCc3cccs3)c2c1` (relative stereo) [Example 25], the Ki in experiment [1] (read-out: SERT Ki) is 1 to 10 nM; in experiment [2] it was 100 to 1000 nM.
The corresponding values for `COc1cccc(CNC[C@@H]2C[C@H]2c2c[nH]c3ccc(C#N)cc23)c1` (relative stereo) [Example 9, trans-2-[5-Cyanoindol-3-yl]-1-[N-(3-methoxybenzyl)aminomethyl]-cyclopropane] are 1 to 10 nM and 100 to 1000 nM.
`N#Cc1ccc2[nH]cc([C@@H]3C[C@H]3CNCCc3ccc(F)cc3)c2c1` (relative stereo) [Example 19, trans-2-[5-Cyanoindol-3-yl]-1-[N-2-(4-fluorophenyl)ethylaminomethyl]-cyclopropane]: the Ki fell in the range of 1 to 10 nM in experiment [1] (read-out: SERT Ki) and 10 to 100 nM in experiment [2].
For `Fc1ccc2[nH]cc([C@@H]3C[C@H]3CNCCOc3ccccc3)c2c1` (relative stereo) [Example 83], the Ki in experiment [1] (read-out: SERT Ki) and in experiment [2] was 1 to 10 nM throughout.
For the molecule `CCN(CC)CCC1CC1c1c[nH]c2ccc(C#N)cc12` (stereo not shown) [Example 144, 3-[2-(2-Diethylamino-ethyl)-cyclopropyl]-1H-indole-5-carbonitrile], the figures for the Ki in experiment [1] (read-out: SERT Ki) and in experiment [2] were 10 to 100 nM and 100 to 1000 nM, respectively.
